Activity calls are given as the source filed them. The rule behind the calls is not given here.
What was measured:
[1] = target: Mitogen-activated protein kinase 9 (Homo sapiens, UniProt P45984); experiment: Inhibition of JNK2 by HTRF assay
[2] = target: Serine/threonine-protein kinase pim-1 (Homo sapiens, UniProt P11309); experiment: Inhibition of PIM1 by HTRF assay
[3] = target: Ribosomal protein S6 kinase alpha-5 (Homo sapiens, UniProt O75582); experiment: Inhibition of MSK1 by HTRF assay
[4] = Inhibition of PKAalpha by HTRF assay
[5] = target: Mitogen-activated protein kinase 14 (Homo sapiens, UniProt Q16539); experiment: Inhibition of p38alpha by HTRF assay
Mus musculus [6] = experiment: Inhibition of anti-CD3-induced IL2 production in BALB/c mouse at 100 mg/kg, po by ELISA relative to control; assay type: functional
[7] = Cmax in Sprague-Dawley rat at 2 mg/kg, po; assay type: ADME, organism-based; set-up: dose 2 mg/kg, route oral; conditions: in vivo
Mus musculus [8] = experiment: Plasma concentration in BALB/c mouse at 100 mg/kg, po; assay type: ADME, organism-based; set-up: dose 100 mg/kg, route oral; conditions: in vivo
[9] = target: Serine/threonine-protein kinase PAK 2 (Homo sapiens, UniProt Q13177); experiment: Inhibition of PAK2 by HTRF assay
[10] = target: Tyrosine-protein kinase Lck (Homo sapiens, UniProt P06239)
Description: Inhibition of Lck by HTRF assay

[11] = target: Tyrosine-protein kinase ABL1 (Homo sapiens, UniProt P00519); experiment: Inhibition of Abl by HTRF assay
[12] = target: Tyrosine-protein kinase Lyn (Homo sapiens, UniProt P07948); experiment: Inhibition of Lyn by HTRF assay
Blood [13] = experiment: Inhibition of anti-CD3-induced IL2 production in human whole blood by ELISA; assay type: functional, tissue-based
[14] = Inhibition of PKBalpha by HTRF assay
[15] = Inhibition of IRK by HTRF assay
Plasma = experiment: Unbound EC50 of ligand in mouse plasma
Mus musculus [16] = experiment: Inhibition of anti-CD3-induced IL2 production in BALB/c mouse at 10 mg/kg, po by ELISA relative to control; assay type: functional
[17] = target: Tyrosine-protein kinase ITK/TSK (Homo sapiens, UniProt Q08881); experiment: Inhibition of Itk by HTRF assay
[18] = Clearance in Sprague-Dawley rat at 0.5 mg/kg, iv; assay type: ADME, organism-based; set-up: dose 0.5 mg/kg, route intravenous; conditions: in vivo
[19] = target: Macrophage-stimulating protein receptor (Homo sapiens, UniProt Q04912); experiment: Inhibition of RON by HTRF assay
[20] = target: Vascular endothelial growth factor receptor 2 (Homo sapiens, UniProt P35968); experiment: Inhibition of KDR by HTRF assay
Angiopoietin-1 receptor = Angiopoietin-1 receptor (Homo sapiens, UniProt Q02763); experiment: Inhibition of Tie2 by HTRF assay
[21] = Inhibition of Aurora1 by HTRF assay
[22] = target: High affinity nerve growth factor receptor (Homo sapiens, UniProt P04629); experiment: Inhibition of TrkA by HTRF assay
[23] = AUC (0 to infinity) in Sprague-Dawley rat at 2 mg/kg, po; assay type: ADME, organism-based; set-up: time infinity, dose 2 mg/kg, route oral; conditions: plasma
[24] = target: Tyrosine-protein kinase Fyn (Homo sapiens, UniProt P06241); experiment: Inhibition of Fyn by HTRF assay
[25] = target: Macrophage colony-stimulating factor 1 receptor (Homo sapiens, UniProt P07333); experiment: Inhibition of cFMS by HTRF assay
[26] = Oral bioavailability in Sprague-Dawley rat at 2 mg/kg; assay type: ADME, organism-based; conditions: in vivo
Mus musculus [27] = experiment: Inhibition of anti-CD3-induced IL2 production in BALB/c mouse at 30 mg/kg, po by ELISA relative to control; assay type: functional
Mus musculus [28] = species on record: Mus musculus; experiment: Inhibition of anti-CD3-induced IL2 production in BALB/c mouse; assay type: functional
[29] = Volume of distribution at steady state in Sprague-Dawley rat at 0.5 mg/kg, iv; assay type: ADME, organism-based; set-up: dose 0.5 mg/kg, route intravenous; conditions: in vivo, read-out: Vdss
[30] = target: Mitogen-activated protein kinase 3 (Homo sapiens, UniProt P27361); experiment: Inhibition of ERK1 by HTRF assay
[31] = target: Tyrosine-protein kinase SYK (Homo sapiens, UniProt P43405); experiment: Inhibition of Syk by HTRF assay
[32] = Inhibition of Aurora2 by HTRF assay
[33] = target: T1, Tyrosine-protein kinase JAK3 (Homo sapiens, UniProt P52333); experiment: Inhibition of Jak3 by HTRF assay
T1 sequence (P52333 whole entry): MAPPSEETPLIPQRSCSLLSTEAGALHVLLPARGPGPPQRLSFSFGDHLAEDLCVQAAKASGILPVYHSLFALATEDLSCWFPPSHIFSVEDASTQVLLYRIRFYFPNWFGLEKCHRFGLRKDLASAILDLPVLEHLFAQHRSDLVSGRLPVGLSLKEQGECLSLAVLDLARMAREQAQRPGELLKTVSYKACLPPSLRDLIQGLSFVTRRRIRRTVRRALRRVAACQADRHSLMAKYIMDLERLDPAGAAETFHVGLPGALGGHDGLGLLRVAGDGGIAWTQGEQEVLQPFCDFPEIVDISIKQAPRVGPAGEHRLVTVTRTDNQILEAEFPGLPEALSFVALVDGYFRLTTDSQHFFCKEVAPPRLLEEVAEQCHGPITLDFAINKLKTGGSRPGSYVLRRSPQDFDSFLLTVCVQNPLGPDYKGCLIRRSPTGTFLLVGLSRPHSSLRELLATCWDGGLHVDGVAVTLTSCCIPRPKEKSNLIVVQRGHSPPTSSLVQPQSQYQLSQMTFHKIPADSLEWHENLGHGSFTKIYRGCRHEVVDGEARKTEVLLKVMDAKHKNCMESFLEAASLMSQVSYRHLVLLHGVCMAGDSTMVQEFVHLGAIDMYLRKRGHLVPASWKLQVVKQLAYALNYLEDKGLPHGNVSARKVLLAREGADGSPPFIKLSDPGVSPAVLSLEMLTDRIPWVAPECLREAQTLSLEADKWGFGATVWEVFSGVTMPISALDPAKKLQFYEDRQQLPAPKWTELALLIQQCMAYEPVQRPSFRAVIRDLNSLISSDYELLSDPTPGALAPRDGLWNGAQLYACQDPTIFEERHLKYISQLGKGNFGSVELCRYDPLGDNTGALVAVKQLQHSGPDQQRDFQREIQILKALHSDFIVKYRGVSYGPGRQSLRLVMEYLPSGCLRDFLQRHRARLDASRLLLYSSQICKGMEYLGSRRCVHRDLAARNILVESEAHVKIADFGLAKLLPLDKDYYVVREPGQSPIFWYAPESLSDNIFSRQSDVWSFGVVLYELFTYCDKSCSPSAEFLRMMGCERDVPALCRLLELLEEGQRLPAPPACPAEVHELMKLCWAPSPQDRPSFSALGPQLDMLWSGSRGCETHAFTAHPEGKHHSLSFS

[34] = Protein binding in rat plasma; assay type: ADME, cell-free; conditions: read-out: PB (converted)
Mus musculus [35] = experiment: Plasma concentration in BALB/c mouse at 30 mg/kg, po; assay type: ADME, organism-based; set-up: dose 30 mg/kg, route oral; conditions: in vivo
Lymphocyte = experiment: Inhibition of T cell activation in human peripheral blood lymphocytes by mixed lymphocyte reaction; assay type: functional, cell-based
[36] = Protein binding in mouse plasma; assay type: ADME, cell-free; conditions: read-out: PB (converted)
[37] = target: Proto-oncogene tyrosine-protein kinase Src (Homo sapiens, UniProt P12931); experiment: Inhibition of Src by HTRF assay
[38] = Tmax in Sprague-Dawley rat at 2 mg/kg; assay type: ADME, organism-based; set-up: dose 2 mg/kg; conditions: in vivo
Blood [39] = experiment: Inhibition of LPS-induced TNFalpha production in human whole blood by ELISA; assay type: functional, tissue-based
Mus musculus [40] = experiment: Plasma concentration in BALB/c mouse at 10 mg/kg, po; assay type: ADME, organism-based; set-up: dose 10 mg/kg, route oral; conditions: in vivo
Mus musculus [41] = experiment: Inhibition of anti-CD3-induced IL2 production in orally dosed BALB/c mouse by ELISA; assay type: functional; conditions: po
[42] = target: Ribosomal protein S6 kinase beta-1 (Homo sapiens, UniProt P23443); experiment: Inhibition of P70S6K by HTRF assay
[43] = Half life in Sprague-Dawley rat at 0.5 mg/kg, iv; assay type: ADME, organism-based; set-up: dose 0.5 mg/kg, route intravenous; conditions: in vivo
Jurkat = experiment: Inhibition of IL2 production in human Jurkat cells stimulated with phorbol 12-myristyl 13-acetate in presence of calcium ionophore; assay type: functional, cell-based

Chain of Tyrosine-protein kinase Lck (P06239 whole entry): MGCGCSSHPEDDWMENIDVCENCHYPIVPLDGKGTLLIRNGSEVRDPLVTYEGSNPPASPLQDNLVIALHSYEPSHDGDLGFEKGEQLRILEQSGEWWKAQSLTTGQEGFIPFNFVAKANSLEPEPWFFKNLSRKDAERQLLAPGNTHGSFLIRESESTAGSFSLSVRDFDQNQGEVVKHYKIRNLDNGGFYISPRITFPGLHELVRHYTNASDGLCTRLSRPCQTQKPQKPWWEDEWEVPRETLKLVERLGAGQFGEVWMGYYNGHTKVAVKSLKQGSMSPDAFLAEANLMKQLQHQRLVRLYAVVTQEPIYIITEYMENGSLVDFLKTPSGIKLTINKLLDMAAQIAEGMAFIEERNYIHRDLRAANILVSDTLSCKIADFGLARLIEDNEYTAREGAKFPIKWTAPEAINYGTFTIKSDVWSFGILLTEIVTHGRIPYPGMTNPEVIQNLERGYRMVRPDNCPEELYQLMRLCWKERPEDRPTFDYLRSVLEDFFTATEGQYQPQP
Chain of Serine/threonine-protein kinase PAK 2 (Q13177 whole entry): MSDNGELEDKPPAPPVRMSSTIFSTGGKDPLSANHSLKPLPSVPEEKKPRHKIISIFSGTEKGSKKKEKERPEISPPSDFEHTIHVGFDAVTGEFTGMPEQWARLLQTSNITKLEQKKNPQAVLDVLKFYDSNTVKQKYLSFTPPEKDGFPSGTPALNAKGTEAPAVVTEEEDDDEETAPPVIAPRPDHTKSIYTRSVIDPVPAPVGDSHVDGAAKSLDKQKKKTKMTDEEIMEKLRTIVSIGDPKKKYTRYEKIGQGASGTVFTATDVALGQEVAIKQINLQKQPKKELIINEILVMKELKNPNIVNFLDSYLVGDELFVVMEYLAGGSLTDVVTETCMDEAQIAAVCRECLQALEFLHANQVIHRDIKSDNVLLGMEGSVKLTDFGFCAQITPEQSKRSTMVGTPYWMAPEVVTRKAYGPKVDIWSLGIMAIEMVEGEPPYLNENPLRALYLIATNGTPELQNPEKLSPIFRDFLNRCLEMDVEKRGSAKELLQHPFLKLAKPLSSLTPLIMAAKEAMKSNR
Chain of Angiopoietin-1 receptor (Q02763 whole entry): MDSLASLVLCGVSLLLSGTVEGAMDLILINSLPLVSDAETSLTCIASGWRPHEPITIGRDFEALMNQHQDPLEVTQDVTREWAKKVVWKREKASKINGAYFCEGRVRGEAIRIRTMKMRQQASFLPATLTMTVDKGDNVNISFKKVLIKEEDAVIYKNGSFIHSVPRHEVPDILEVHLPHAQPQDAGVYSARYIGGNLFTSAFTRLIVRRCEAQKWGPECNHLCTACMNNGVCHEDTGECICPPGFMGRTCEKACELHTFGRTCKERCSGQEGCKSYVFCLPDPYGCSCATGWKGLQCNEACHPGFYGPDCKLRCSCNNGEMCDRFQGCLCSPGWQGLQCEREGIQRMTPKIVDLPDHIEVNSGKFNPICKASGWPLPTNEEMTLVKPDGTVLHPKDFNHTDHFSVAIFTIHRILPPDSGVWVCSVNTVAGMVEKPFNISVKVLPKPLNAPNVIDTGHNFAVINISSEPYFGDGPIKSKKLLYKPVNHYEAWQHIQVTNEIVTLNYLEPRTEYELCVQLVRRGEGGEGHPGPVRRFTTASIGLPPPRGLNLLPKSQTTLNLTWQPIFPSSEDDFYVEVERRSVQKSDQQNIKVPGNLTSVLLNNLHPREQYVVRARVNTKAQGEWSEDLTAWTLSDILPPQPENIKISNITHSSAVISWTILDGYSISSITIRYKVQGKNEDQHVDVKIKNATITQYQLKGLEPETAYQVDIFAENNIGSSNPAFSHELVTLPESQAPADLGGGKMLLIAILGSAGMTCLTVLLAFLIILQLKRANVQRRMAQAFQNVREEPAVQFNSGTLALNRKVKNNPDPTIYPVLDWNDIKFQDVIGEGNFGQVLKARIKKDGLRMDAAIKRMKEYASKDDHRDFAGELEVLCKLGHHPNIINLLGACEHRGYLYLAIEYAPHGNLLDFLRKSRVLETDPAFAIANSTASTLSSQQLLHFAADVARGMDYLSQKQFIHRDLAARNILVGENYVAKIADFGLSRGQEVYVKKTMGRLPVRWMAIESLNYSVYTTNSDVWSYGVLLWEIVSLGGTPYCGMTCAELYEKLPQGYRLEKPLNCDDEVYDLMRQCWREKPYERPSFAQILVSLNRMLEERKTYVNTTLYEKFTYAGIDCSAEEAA
Chain of Tyrosine-protein kinase ABL1 (P00519 whole entry): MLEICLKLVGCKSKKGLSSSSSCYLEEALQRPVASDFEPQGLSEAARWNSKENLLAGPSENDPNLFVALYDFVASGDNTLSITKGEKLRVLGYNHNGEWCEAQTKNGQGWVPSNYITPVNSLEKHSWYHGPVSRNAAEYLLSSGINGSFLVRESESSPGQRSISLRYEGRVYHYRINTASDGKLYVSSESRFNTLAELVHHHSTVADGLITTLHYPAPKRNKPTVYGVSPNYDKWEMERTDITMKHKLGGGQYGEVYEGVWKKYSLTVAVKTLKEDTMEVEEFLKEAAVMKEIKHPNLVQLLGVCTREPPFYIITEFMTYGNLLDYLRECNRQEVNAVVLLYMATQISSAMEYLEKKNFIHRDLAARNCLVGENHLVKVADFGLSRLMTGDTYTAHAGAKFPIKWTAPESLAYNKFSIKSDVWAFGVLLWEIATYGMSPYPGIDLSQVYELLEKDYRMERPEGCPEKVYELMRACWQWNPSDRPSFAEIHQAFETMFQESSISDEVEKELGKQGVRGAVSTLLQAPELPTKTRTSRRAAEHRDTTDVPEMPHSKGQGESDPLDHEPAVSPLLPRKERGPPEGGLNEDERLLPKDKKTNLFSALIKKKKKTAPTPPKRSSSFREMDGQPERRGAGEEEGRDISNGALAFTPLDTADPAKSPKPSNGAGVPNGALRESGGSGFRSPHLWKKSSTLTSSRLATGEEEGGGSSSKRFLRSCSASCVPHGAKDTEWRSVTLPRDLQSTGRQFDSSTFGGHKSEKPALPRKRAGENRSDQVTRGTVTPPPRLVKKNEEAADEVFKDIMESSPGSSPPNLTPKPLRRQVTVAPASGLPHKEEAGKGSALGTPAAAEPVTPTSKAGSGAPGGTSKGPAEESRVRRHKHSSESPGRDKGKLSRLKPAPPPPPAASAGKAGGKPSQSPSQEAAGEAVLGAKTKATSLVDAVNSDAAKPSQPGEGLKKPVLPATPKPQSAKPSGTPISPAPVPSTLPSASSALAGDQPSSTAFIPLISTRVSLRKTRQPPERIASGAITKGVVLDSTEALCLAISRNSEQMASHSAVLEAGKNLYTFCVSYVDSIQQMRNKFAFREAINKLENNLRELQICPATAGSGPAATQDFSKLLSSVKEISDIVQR
Chain of Tyrosine-protein kinase ITK/TSK (Q08881 whole entry): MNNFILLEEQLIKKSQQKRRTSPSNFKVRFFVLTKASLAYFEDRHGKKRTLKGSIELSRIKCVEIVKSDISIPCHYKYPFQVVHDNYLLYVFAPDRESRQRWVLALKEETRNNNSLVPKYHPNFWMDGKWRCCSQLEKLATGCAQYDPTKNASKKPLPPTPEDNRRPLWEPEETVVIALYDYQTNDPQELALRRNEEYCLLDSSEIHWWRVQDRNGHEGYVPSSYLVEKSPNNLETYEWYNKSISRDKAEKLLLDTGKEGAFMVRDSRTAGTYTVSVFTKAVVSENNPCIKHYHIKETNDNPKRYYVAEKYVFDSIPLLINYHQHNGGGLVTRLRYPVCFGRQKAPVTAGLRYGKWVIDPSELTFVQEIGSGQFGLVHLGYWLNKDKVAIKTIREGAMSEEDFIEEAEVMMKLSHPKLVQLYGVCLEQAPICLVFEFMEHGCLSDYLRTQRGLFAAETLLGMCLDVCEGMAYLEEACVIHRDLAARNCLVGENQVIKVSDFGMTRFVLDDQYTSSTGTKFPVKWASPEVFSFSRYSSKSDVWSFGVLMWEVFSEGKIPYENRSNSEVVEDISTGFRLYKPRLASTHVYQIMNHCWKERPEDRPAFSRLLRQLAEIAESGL
Chain of Proto-oncogene tyrosine-protein kinase Src (P12931 2-536 limits assumed): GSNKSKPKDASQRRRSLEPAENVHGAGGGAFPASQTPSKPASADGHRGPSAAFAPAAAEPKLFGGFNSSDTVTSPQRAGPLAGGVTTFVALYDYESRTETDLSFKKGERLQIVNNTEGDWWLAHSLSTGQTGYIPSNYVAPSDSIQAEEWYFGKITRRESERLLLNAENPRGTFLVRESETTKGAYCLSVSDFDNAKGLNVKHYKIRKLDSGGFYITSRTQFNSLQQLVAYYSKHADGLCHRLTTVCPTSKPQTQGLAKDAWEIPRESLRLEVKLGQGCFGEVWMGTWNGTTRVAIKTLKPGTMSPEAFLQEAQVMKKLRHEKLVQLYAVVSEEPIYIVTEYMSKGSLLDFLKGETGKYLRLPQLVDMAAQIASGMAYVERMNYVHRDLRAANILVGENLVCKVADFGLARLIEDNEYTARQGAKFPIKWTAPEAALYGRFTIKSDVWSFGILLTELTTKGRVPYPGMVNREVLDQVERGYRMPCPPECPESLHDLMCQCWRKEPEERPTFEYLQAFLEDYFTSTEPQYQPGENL
Chain of Mitogen-activated protein kinase 9 (P45984 whole entry): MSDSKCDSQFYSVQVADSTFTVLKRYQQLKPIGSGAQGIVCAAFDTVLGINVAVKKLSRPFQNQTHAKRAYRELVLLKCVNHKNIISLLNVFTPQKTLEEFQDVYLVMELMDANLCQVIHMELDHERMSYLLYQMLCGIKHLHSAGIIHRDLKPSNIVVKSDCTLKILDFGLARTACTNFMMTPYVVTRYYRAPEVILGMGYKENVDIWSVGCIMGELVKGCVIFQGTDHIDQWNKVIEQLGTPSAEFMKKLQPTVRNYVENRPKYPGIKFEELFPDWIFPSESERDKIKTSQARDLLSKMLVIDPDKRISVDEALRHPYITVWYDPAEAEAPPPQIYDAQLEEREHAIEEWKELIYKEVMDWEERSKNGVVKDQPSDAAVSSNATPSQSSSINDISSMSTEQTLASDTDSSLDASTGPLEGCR

Q: For `Cc1ccc(NC(=O)c2cccc(C(F)(F)F)c2)cc1C(=O)Nc1cnc(Nc2ccc(N3CCN(C)CC3)cc2)nc1`, which IC50 [1] is on record?
A: Its IC50 is 4290 nM.

Q: And the IC50 [2]?
A: The IC50 was over 30000 nM.

Q: And the IC50 [3]?
A: Its IC50 is over 100000 nM.

Q: What about the IC50 [4] of the same molecule?
A: Its IC50 is over 85000 nM.

Q: What about the IC50 [5] of the same molecule?
A: The IC50 was 5 nM.

Q: And the inhibition in vivo at 100 mg/kg (Mus musculus [6])?
A: The inhibition in vivo at 100 mg/kg was 91%.

Q: What about the Cmax [7] of the same molecule?
A: Its Cmax is 49 ng/mL.

Q: And the concentration (Mus musculus [8])?
A: The concentration was 1540 nM.

Q: And the IC50 [9]?
A: Its IC50 is over 25000 nM.

Q: And the IC50 [10]?
A: The IC50 was 0.6 nM.

Q: And the IC50 [11]?
A: Its IC50 is 2 nM.

Q: What about the IC50 [12] of the same molecule?
A: Its IC50 is 0.9 nM.

Q: What about the IC50 (Blood [13]) of the same molecule?
A: Its IC50 is 7 nM.

Q: And the IC50 [14]?
A: The IC50 was over 100000 nM.

Q: What about the IC50 [15] of the same molecule?
A: The IC50 was over 5000 nM.

Q: What about the EC50 unbound (Plasma) of the same molecule?
A: The EC50 unbound was 4 nM.

Q: And the inhibition in vivo at 10 mg/kg (Mus musculus [16])?
A: Its inhibition in vivo at 10 mg/kg is 53%.

Q: And the IC50 [17]?
A: The IC50 was over 25000 nM.

Q: And the clearance [18]?
A: The clearance was 17.3 mL/min/kg.

Q: And the IC50 [19]?
A: The IC50 was over 25000 nM.

Q: What about the IC50 [20] of the same molecule?
A: The IC50 was 24 nM.

Q: What about the IC50 (Angiopoietin-1 receptor) of the same molecule?
A: The IC50 was 9950 nM.

Q: What about the IC50 [21] of the same molecule?
A: Its IC50 is over 8300 nM.

Q: What about the IC50 [22] of the same molecule?
A: The IC50 was over 5000 nM.

Q: And the AUC(0-inf) [23]?
A: The AUC(0-inf) was 419 ng·h/mL.

Q: And the IC50 [24]?
A: The IC50 was 3 nM.

Q: What about the IC50 [25] of the same molecule?
A: The IC50 was 40 nM.

Q: And the bioavailability [26]?
A: The bioavailability was 22%.

Q: And the inhibition in vivo at 30 mg/kg (Mus musculus [27])?
A: Its inhibition in vivo at 30 mg/kg is 89%.

Q: And the Activity (Mus musculus [28])?
A: Its Activity is “Active”.

Q: What about the Vd [29] of the same molecule?
A: The Vd was 3.29 L/kg.

Q: What about the IC50 [30] of the same molecule?
A: Its IC50 is over 100000 nM.

Q: And the IC50 [31]?
A: The IC50 was over 5000 nM.

Q: And the IC50 [32]?
A: Its IC50 is over 25000 nM.

Q: And the IC50 [33]?
A: The IC50 was over 25000 nM.

Q: What about the fraction unbound [34] of the same molecule?
A: The fraction unbound was 0.006.

Q: And the concentration (Mus musculus [35])?
A: The concentration was 434 nM.

Q: And the IC50 (Lymphocyte)?
A: The IC50 was 11 nM.

Q: What about the fraction unbound [36] of the same molecule?
A: Its fraction unbound is 0.022.

Q: And the IC50 [37]?
A: Its IC50 is 3 nM.

Q: And the Tmax [38]?
A: The Tmax was 4.67 h.

Q: What about the IC50 (Blood [39]) of the same molecule?
A: The IC50 was 718 nM.

Q: And the concentration (Mus musculus [40])?
A: The concentration was 176 nM.

Q: What about the ED50 (Mus musculus [41]) of the same molecule?
A: The ED50 was 9.4 mg/kg.

Q: What about the IC50 [42] of the same molecule?
A: The IC50 was over 100000 nM.

Q: And the half-life [43]?
A: Its half-life is 3.2 h.

Q: What about the IC50 (Jurkat) of the same molecule?
A: Its IC50 is over 20000 nM.

Reference: ChEMBL document CHEMBL1144680, “Structure-guided design of aminopyrimidine amides as potent, selective inhibitors of lymphocyte specific kinase: synthesis, structure-activity relationships, and inhibition of in vivo T cell activation” (J Med Chem, 2008)
